Data on one molecule can be found in US11124479B2, “Oligopyrroles as antagonists of islet amyloid polypeptide oligomerization” (New York University, priority 2017, dated 2021).

In data set [1] the test system is IAPP mediated cytotoxicity in Rat insulinoma cells (RIN-m). The experiment in a line: Cell viability (CellTiter Blue), IAPP-mediated cytotoxicity. It is filed as cell-based. The note with it: 6 μM IAPP, 48 h, IAPP alone ~68%. As for the experimental part:
For cell toxicity assays, Rat insulinoma cells (RIN-m) were as they are considered to be a good model for pancreatic β-cells (see Huang, C.; Lin, C.; Haataja, L., Gurlo, T., Butler, A. E., Rizza, R. A., and Butler, P. C. Diabetes, 2007, 56, 2016-2027). Rat insulinoma RIN-m cells (ATCC, Manassas, Va.) were cultured in RPMI medium supplemented with 10% fetal bovine serum, 1% penicillin/streptomycin, […] sodium pyruvate, and […] β-mercaptoethanol (Life Technologies, Carlsbad, Calif.) at 37° C. and 5% CO2. Upon reaching ˜95% confluence, cells were washed with phosphate buffered saline (VWR, Radnor, Pa.), split using 0.25% Trypsin-EDTA (Life Technologies), and plated in clear 96-well plates (Corning, Glenview, Ill.) for cell viability assays.
Cell viability was measured using the CellTiter Blue (CTB, Promega, Madison, Wis.) fluorescence-based assay. Cells were plated at a density of 20,000 cells per well in 96 well plates. After 48 h of incubation at 37° C. and 5% CO2, cells were washed with 100 μL of PBS. […] Fluorescence of the dye was measured on a FlexStation3 microplate reader (Molecular Devices, Sunnyvale, Calif.). […] Percent viability was calculated as per the following equation: % Viability=100*[(<S>−<P>)/(<N>−<P>)]
Where <S>, <P>, and <N> are the average fluorescence intensities of the sample, positive control, and negative control, respectively.
(Resazurin is reduced to fluorescent resorufin, in cell work by metabolically active cells.)

Data set [2] addresses T1, islet amyloid polypeptide (IAPP) (Homo sapiens, UniProt P10997).
T1 construct: IAPP is a 37 residue neuropancreatic hormone peptide; purchased Anaspec (Fremont, Calif.)
T1 sequence (P10997 34-70 limits assumed): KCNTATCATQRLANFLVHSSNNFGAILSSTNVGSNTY
The experiment in a line: Circular dichroism (CD) spectroscopy of IAPP conformation. The note with it: for IAPP conformation by CD: 15 μM IAPP, equimolar ratio. As to the method: A freshly prepared stock solution of IAPP (500 μM in water) was diluted to 15 μM in phosphate buffer for CD measurements. The spectra of IAPP were recorded at 0.5 nm intervals from 190 to 260 nm with an averaging time of 10 sec. and an average of three repeats on an Aviv Stopped Flow CD Spectropolarimeter (Model 202SF). Spectra were recorded using the identical method as described above. ADH-101 was added to the solution of IAPP at an equimolar ratio. […]
For orientation: Circular dichroism is the unequal absorption of left and right circularly polarised light.

In data set [3] the target is T2, IAPP-induced lipid membrane leakage (Homo sapiens, UniProt P10997).
T2 construct: IAPP is a 37 residue neuropancreatic hormone peptide; purchased Anaspec (Fremont, Calif.)
T2 sequence (P10997 34-70 limits assumed): T1 sequence (P10997 34-70 limits assumed)
The experiment in a line: Fluorescein-based liposome leakage assay. It is filed as biochemical. The source says: Colocalization of IAPP at the mitochondrial membrane and the subsequent membrane poration is considered to be one of the potential contributors to β-cell toxicity. Therefore, a liposome leakage assay could serve as a surrogate marker for IAPP induced cytotoxicity (see Last, N. B.; Miranker, A. D. Proc. Natl. Acad. Sci. U.S.A. 2013, 110, 6382-6387; and Last, N. B.; Rhoades, E.; Miranker, A. D. Proc. Natl. Acad. Sci. U.S.A. 2011, 108, 9460-9465). A previously reported fluorescein-based liposome leakage assay was employed to test the effect of ADH-101 on membrane associated α-helical intermediates of IAPP. Briefly, fluorescein-dextran conjugate (MW=70 kDa) was encapsulated in unilamaller extruded lipid vesicles (DOPG:DOPC, 3:7, d=100 nm). The size of fluorescein-dextran conjugate allows it to stay inside the lipid vesicles during IAPP mediated membrane poration. The leakage kinetics was probed by the quenching of fluorescence using a fluorescent quencher, DPX (p-xylene-bis-pyridinium […]). The kinetic profiles of leakage are single exponential with a decrease in fluorescence as a function of time. The leakage reaction was initiated by introducing 200 μM liposome into a solution of 4 μM IAPP and 6 mM of DPX. The introduction of the excess ionic concentration by DPX was counterbalanced by adjusting the buffer concentration. The kinetics of the leakage mediated by IAPP yielded a single exponential profile with a leakage rate of 7.3±1.1×10^−3 s^−1 (FIG. 5A).
The kinetics of liposome leakage induced by IAPP was monitored on QuantaMaster C-61 fluorescence spectrometer (Photon Technology International, Edison, N.J.) at 25° C. […] The stock solution of IAPP used in the measurements was kept in water at a concentration of 1 mM. The stock solution of water soluble quencher, DPX (p-xylene-bis-pyridinium bromide) was prepared in buffer (100 mM KCl, 50 mM NaPi, pH 7.4) at a concentration of 100 mM. The small molecules used in the leakage assay were dissolved in DMSO with a concentration range of 10-20 mM. The final concentration of dye encapsulating liposome, DPX, human IAPP, and small molecules were 200, 6000, 4, and 4 μM respectively. The final buffer concentration was corrected using higher concentration of buffer to keep the osmolality balanced. […] To determine the leakage rate constant, first the fluorescence was normalized and corrected by subtracting it from normalized fluorescence of control reaction. The corrected fluorescence was fit using equation given below (using Origin 9.1). All the experiments were performed in triplicate and the error values presented are standard deviations. a*exp(−b*x)+c (2) a=amplitude from 100% unleaked to 0% leaked c=final fraction of unleaked liposome y=change in fluorescence b=leakage rate constant

A short description of data set [4]: Self-aggregation by UV, centrifugation and DLS. It is filed as physicochemical. From the text: ADH-101 contains hydrophobic and negatively charged groups and presents a possibility for self-aggregation. It has been shown that the small molecules with self-aggregation tendencies can inhibit amyloid formation in a non-specific manner. Therefore, UV, centrifugation, and DLS were used to explore the self-aggregation properties of ADH-101 (FIG. 12A).

Broadly, the cell viability is a per cent measure of how many cells are alive, often set against a control.

`CCOC(=O)c1cc(NC(=O)c2cc(NC(=O)c3cc([N+](=O)[O-])cn3CC(C)C)cn2CC(C)C)cn1CCC(=O)O` [ADH-101]: the cell viability in data set [1] (ratio 1:1 (IAPP:ADH-101)) and in data set [1] (ratio 1:2 (IAPP:ADH-101)) was 100% in each case. Moreover, the “IAPP conformation by CD” value in data set [2] (phosphate buffer, after 8 hours) is given as “no β-sheet conformation was observed”; in data set [2] (lipid membrane (600 μM DOPG:DOPC 3:7), after 1 hour) it was “stays in an α-helical state”. Also, the “conformation induced in IAPP” value in data set [2] (FIG. 3B) is reported as “induces an α-helical conformation”. The “induced CD signal around 340 nm” value in data set [2] (incubated with IAPP at equimolar ratio) is “positive induced CD signal”. For the same molecule, in data set [3] (4 μM IAPP, 4 μM compound, 200 μM liposome), the “leakage rate slower than the control reaction (IAPP only)” value is around 3.5 times. Also, the “effect on the integrity of the liposomes” value in data set [3] (ADH-101 alone, 4 μM, no IAPP) is “did not have any effect”. Besides, the “diameter of species by DLS” value in data set [4] (50 μM, 150 mM KCl, 50 mM NaPi, pH 7.4) is “less than 10 nm”. In addition, in data set [4] (phosphate buffer, UV and centrifugation), the “concentration up to which the compound did not self-assemble” value was above 40 µM.
